Active and inactive are the calls of the source. The rule behind the calls is not given here.
Key:
NCI-H23 [1] = assay: Growth inhibition of human NCI-H23 cells after 48 hrs by SRB assay; type: functional; conditions: NCI-H23, 48 h
HCT-15 [2] = assay: Growth inhibition of human HCT15 cells after 48 hrs by SRB assay; type: functional; conditions: HCT-15, 48 h
[3] = target: Rho-related GTP-binding protein RhoB (Homo sapiens) (UniProt P62745); assay: Transactivation of RhoB (unknown origin) transfected in human HeLa cells at 5 uM measured over 10 secs by dual luciferase reporter gene assay; type: cell-based
Rho-related GTP-binding protein RhoB (Homo sapiens), sequence (P62745 whole entry): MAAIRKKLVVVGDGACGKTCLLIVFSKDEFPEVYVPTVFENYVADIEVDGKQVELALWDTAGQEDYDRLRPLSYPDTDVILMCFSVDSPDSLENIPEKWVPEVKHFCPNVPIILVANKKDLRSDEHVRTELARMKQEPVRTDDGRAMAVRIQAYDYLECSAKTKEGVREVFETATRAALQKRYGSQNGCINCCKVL

NUGC-3 [4] = assay: Growth inhibition of human NUGC3 cells after 48 hrs by SRB assay; type: functional; conditions: NUGC-3, 48 h
ACHN [5] = assay: Growth inhibition of human ACHN cells after 48 hrs by SRB assay; type: functional
MDA-MB-231 [6] = assay: Growth inhibition of human MDA-MB-231 cells after 48 hrs by SRB assay; type: functional; conditions: MDA-MB-231, 48 h
PC-3 [7] = assay: Growth inhibition of human PC3 cells after 48 hrs by SRB assay; type: functional; conditions: PC-3, 48 h
PC-3 [8] = assay: Growth of human PC3 cells at 10 uM after 48 hrs by SRB assay; conditions: PC-3, 48 h
NUGC-3 [9] = assay: Growth of human NUGC3 cells at 1 uM after 48 hrs by SRB assay; conditions: NUGC-3, 48 h
ACHN [10] = assay: Growth of human ACHN cells at 10 uM after 48 hrs by SRB assay
HCT-15 [11] = assay: Growth of human HCT15 cells at 3 uM after 48 hrs by SRB assay; conditions: HCT-15, 48 h
ACHN [12] = assay: Growth of human ACHN cells at 0.1 uM after 48 hrs by SRB assay
ACHN [13] = assay: Growth of human ACHN cells at 0.3 uM after 48 hrs by SRB assay
NUGC-3 [14] = assay: Growth of human NUGC3 cells at 0.1 uM after 48 hrs by SRB assay; conditions: NUGC-3, 48 h
NUGC-3 [15] = assay: Growth of human NUGC3 cells at 0.3 uM after 48 hrs by SRB assay; conditions: NUGC-3, 48 h
HCT-15 [16] = assay: Growth of human HCT15 cells at 0.3 uM after 48 hrs by SRB assay; conditions: HCT-15, 48 h
NCI-H23 [17] = assay: Growth of human NCI-H23 cells at 10 uM after 48 hrs by SRB assay; conditions: NCI-H23, 48 h
NCI-H23 [18] = assay: Growth of human NCI-H23 cells at 0.3 uM after 48 hrs by SRB assay; conditions: NCI-H23, 48 h
MDA-MB-231 [19] = assay: Growth of human MDA-MB-231 cells at 1 uM after 48 hrs by SRB assay; conditions: MDA-MB-231, 48 h
MDA-MB-231 [20] = assay: Growth of human MDA-MB-231 cells at 10 uM after 48 hrs by SRB assay; conditions: MDA-MB-231, 48 h
MDA-MB-231 [21] = assay: Growth of human MDA-MB-231 cells at 0.1 uM after 48 hrs by SRB assay; conditions: MDA-MB-231, 48 h
MDA-MB-231 [22] = assay: Growth of human MDA-MB-231 cells at 3 uM after 48 hrs by SRB assay; values are per cent of control; conditions: MDA-MB-231, 48 h
PC-3 [23] = assay: Growth inhibition of human PC3 cells at 1 uM after 48 hrs by SRB assay; values are per cent of control; conditions: PC-3, 48 h
PC-3 [24] = assay: Growth inhibition of human PC3 cells at 3 uM after 48 hrs by SRB assay; values are per cent of control; conditions: PC-3, 48 h
ACHN [25] = assay: Growth inhibition of human ACHN cells at 3 uM after 48 hrs by SRB assay; values are per cent of control
ACHN [26] = assay: Growth inhibition of human ACHN cells at 1 uM after 48 hrs by SRB assay; values are per cent of control
NUGC-3 [27] = assay: Growth inhibition of human NUGC3 cells at 3 uM after 48 hrs by SRB assay; values are per cent of control; conditions: NUGC-3, 48 h
PC-3 [28] = assay: Growth inhibition of human PC3 cells at 0.1 uM after 48 hrs by SRB assay; values are per cent of control; conditions: PC-3, 48 h
PC-3 [29] = assay: Growth inhibition of human PC3 cells at 0.3 uM after 48 hrs by SRB assay; values are per cent of control; conditions: PC-3, 48 h
HCT-15 [30] = assay: Growth inhibition of human HCT15 cells at 1 uM after 48 hrs by SRB assay; values are per cent of control; conditions: HCT-15, 48 h
NUGC-3 [31] = assay: Growth inhibition of human NUGC3 cells at 10 uM after 48 hrs by SRB assay; values are per cent of control; conditions: NUGC-3, 48 h
HCT-15 [32] = assay: Growth inhibition of human HCT15 cells at 10 uM after 48 hrs by SRB assay; values are per cent of control; conditions: HCT-15, 48 h
NCI-H23 [33] = assay: Growth inhibition of human NCI-H23 cells at 1 uM after 48 hrs by SRB assay; values are per cent of control; conditions: NCI-H23, 48 h
NCI-H23 [34] = assay: Growth inhibition of human NCI-H23 cells at 3 uM after 48 hrs by SRB assay; values are per cent of control; conditions: NCI-H23, 48 h
HCT-15 [35] = assay: Growth inhibition of human HCT15 cells at 0.1 uM after 48 hrs by SRB assay; values are per cent of control; conditions: HCT-15, 48 h
NCI-H23 [36] = assay: Growth inhibition of human NCI-H23 cells at 0.1 uM after 48 hrs by SRB assay; values are per cent of control; conditions: NCI-H23, 48 h
MDA-MB-231 [37] = assay: Growth inhibition of human MDA-MB-231 cells at 0.3 uM after 48 hrs by SRB assay; values are per cent of control; conditions: MDA-MB-231, 48 h

| GI50 (NCI-H23 [1]) | GI50 (HCT-15 [2]) | Activity [3] | GI50 (ACHN [5]) | GI50 (MDA-MB-231 [6]) | GI50 (PC-3 [7]) | SMILES | GI50 (NUGC-3 [4]) | growth, % of control at 10 µM (PC-3 [8]) | growth, % of control at 1 µM (NUGC-3 [9]) | growth, % of control at 10 µM (ACHN [10]) | growth, % of control at 3 µM (HCT-15 [11]) | growth, % of control at 0.1 µM (ACHN [12]) | growth, % of control at 0.3 µM (ACHN [13]) | growth, % of control at 0.1 µM (NUGC-3 [14]) | growth, % of control at 0.3 µM (NUGC-3 [15]) | growth, % of control at 0.3 µM (HCT-15 [16]) | growth, % of control at 10 µM (NCI-H23 [17]) | growth, % of control at 0.3 µM (NCI-H23 [18]) | growth, % of control at 1 µM (MDA-MB-231 [19]) | growth, % of control at 10 µM (MDA-MB-231 [20]) | other results |
| --- | --- | --- | --- | --- | --- | --- | --- | --- | --- | --- | --- | --- | --- | --- | --- | --- | --- | --- | --- | --- | --- |
| 2040 nM | 750 nM | Active | 1400 nM | 920 nM | 470 nM | CCCCCCCCCCCCCCS(=O)(=O)N(C)CC[N+](C)(C)C | 390 nM | -14.3% | 34.4% | 21.3% | 26.9% | 107% | 100% | 92.4% | 84.5% | 97.5% | 23.7% | 100% | 66.3% | 7.8% | growth, % of control at 0.1 µM (MDA-MB-231 [21]): 99.1%; growth, % of control at 3 µM (MDA-MB-231 [22]): 35.3%; growth, % of control at 1 µM (PC-3 [23]): 45.1%; growth, % of control at 3 µM (PC-3 [24]): 11.4%; growth, % of control at 3 µM (ACHN [25]): 47.2%; growth, % of control at 1 µM (ACHN [26]): 71.6%; growth, % of control at 3 µM (NUGC-3 [27]): 18.4%; growth, % of control at 0.1 µM (PC-3 [28]): 92%; growth, % of control at 0.3 µM (PC-3 [29]): 93.6%; growth, % of control at 1 µM (HCT-15 [30]): 55.6%; growth, % of control at 10 µM (NUGC-3 [31]): 9%; growth, % of control at 10 µM (HCT-15 [32]): 20.2%; growth, % of control at 1 µM (NCI-H23 [33]): 86.3%; growth, % of control at 3 µM (NCI-H23 [34]): 59.1%; growth, % of control at 0.1 µM (HCT-15 [35]): 95.7%; growth, % of control at 0.1 µM (NCI-H23 [36]): 94.5%; growth, % of control at 0.3 µM (MDA-MB-231 [37]): 98.2% |
| 210 nM | 680 nM | Active | 1010 nM | 1260 nM | 300 nM | CCCCCCCCCCCCCCS(=O)(=O)N(C)CCC[N+](C)(C)C | 150 nM | -17.4% | 22.7% | 27.1% | 29.9% | 85.3% | 93.4% | 83.9% | 42.8% | 87.9% | -50.6% | 70.6% | 66.6% | 23.5% | growth, % of control at 0.1 µM (MDA-MB-231 [21]): 102%; growth, % of control at 3 µM (MDA-MB-231 [22]): 42.1%; growth, % of control at 1 µM (PC-3 [23]): 18.6%; growth, % of control at 3 µM (PC-3 [24]): -0.1%; growth, % of control at 3 µM (ACHN [25]): 37.8%; growth, % of control at 1 µM (ACHN [26]): 57.2%; growth, % of control at 3 µM (NUGC-3 [27]): 8.5%; growth, % of control at 0.1 µM (PC-3 [28]): 97.1%; growth, % of control at 0.3 µM (PC-3 [29]): 86.4%; growth, % of control at 1 µM (HCT-15 [30]): 46.2%; growth, % of control at 10 µM (NUGC-3 [31]): -12.9%; growth, % of control at 10 µM (HCT-15 [32]): 24.8%; growth, % of control at 1 µM (NCI-H23 [33]): 8%; growth, % of control at 3 µM (NCI-H23 [34]): -19.7%; growth, % of control at 0.1 µM (HCT-15 [35]): 92.4%; growth, % of control at 0.1 µM (NCI-H23 [36]): 84.8%; growth, % of control at 0.3 µM (MDA-MB-231 [37]): 98.1% |

Source: ChEMBL document CHEMBL2434921, “New synthetic aliphatic sulfonamido-quaternary ammonium salts as anticancer chemotherapeutic agents” (2013)
